# Reference: publication PMC8156934, “Photophysical Study and Biological Applications of Synthetic Chalcone-Based Fluorescent Dyes” (Molecules, 2021)
# Experiments:
# [1] = Photophysical properties (UV–Vis absorption and fluorescence spectra); type: physicochemical; settings: for λabs absorption maximum wavelength / ∆λ stokes shifts (λem − λabs) / λem emission maximum wavelength / Φf fluorescence quantum yields: 2 µM; for λem emission maximum wavelength: excited at the maximum absorption wavelength; for Φf fluorescence quantum yields: n = 3, relative to fluorescein in 0.1 M NaOH
# Protocol: All UV–Vis absorption and fluorescence spectra were recorded on a UV–Vis Spectrophotometer (Agilent Technologies Cary 300, Santa Clara, CA, USA) and a Spectrofluorometer (PerkinElmer LS55, Waltham, MA, USA), respectively. In both experiments, the stock solutions of chalcones 3a–f were prepared as 0.5 mM in DMSO. The appropriate amount of the stock solution was added to DMSO, MeOH, and 0.01 M PBS buffer (pH 7.4) with 3% Tween 80 (3 mL) to obtain the final concentration of 2 µM in the testing solutions. For fluorescence experiments, the emission spectra were recorded at the maximum absorbance wavelength of each compound. The fluorescent quantum yields (Φf) were calculated relative to fluorescein in 0.1 M NaOH as a standard (Φf = 0.95).
# [2] = pH effect on fluorescence emission; type: physicochemical; settings: pH range from 2 to 12, 2 µM, 3% Tween 80
# Protocol: Chalcones 3a–f (2 µM) were dissolved in commercial pH 1–12 buffers purchased from Merck (St. Louis, MO, USA) (glycine/NaCl/HCl for pH 1, citric acid/NaOH/HCl for pH 2–6, Na2HPO4/KH2PO4 for pH 7, boric acid/ KCl/NaOH for pH 8–11, Na3PO4/NaOH for pH 12) in the presence of Tween 80 (3% w/w). The actual pH values of the final buffer solutions were measured by a pH meter. The resulting solutions were examined by a Spectrofluorometer (PerkinElmer LS55) at the maximum absorbance wavelength of each compound.
# [3] = Photo-stability test (photobleaching under 250 W blue light); type: physicochemical; settings: DMSO, 250 W blue light (380–500 nm), after 30 min irradiation
# Protocol: Chalcones 3a–f were dissolved in DMSO at the final concentration of 1 × 10^−6 M for measuring absorption and emission intensity. Then, 3a–f were irradiated at 250 W (blue-lamp) at a distance of 75 cm. The UV–Visible absorption and fluorescence spectra of the solutions were measured at different time points including 0, 1, 5, 10, 15, 20, and 30 min. Photo-stability was reported in terms of photobleaching absorption and emission (%) calculated from the change of absorption and emission intensity at the absorption and emission maxima before and after irradiation.
# HEK-293 = experiment: Cell viability MTT assay, normal cells; type: cell-based; settings: Homo sapiens, HEK293; HEK-293, 24 h, MTT; read-out: IC50
# Protocol: (§1) For fluorescence imaging of living cells, human embryonic kidney 293 (HEK-293, ATCC) and human hepatoma cancer cell (HepG2, ATCC) were cultured in Dulbecco′s Modified Eagle′s Medium (DMEM, HyClone) supplemented with 10% Fetal Bovine Serum (FBS, Gibco, Carlsbad, CA, USA) and 1% Penicillin/Streptomycin Solution 100X (Corning, Corning, NY, USA). All cells were cultured in a humidified incubator at 37 °C with 5% CO2. HEK-293 and HepG2 cells, approximately 1 × 10^4 cells, were seeded on 8-well chambered cover glasses (LabTek, Nunc, Carlsbad, CA, USA) and incubated in complete medium for 24 h. After that, the cells were treated with 5 μM stock solutions of 3a–f in DMSO/cell culture medium containing 10% FBS (0.25% DMSO), for 0, 1, 3, and 6 h. Then, the cells were washed twice with 0.01 M PBS before being visualized under a Laser-Scanning Confocal Microscope (Nikon A1Rsi) with a 60× oil immersion objective lens and living cell workstation with the excitation channel at 488 nm.
# (§2) The cells were seeded on a 96-well plate, approximately 7 × 10^3 cells per well, and incubated in complete medium for 24 h. After that, the cells were treated with 0, 1, 5, 10, 20, and 50 μM of chalcones 3a–f, and culturing continued for 24 h. After incubation, the cells were washed three times with 10 mM PBS and treated with […] of methylthiazolyldiphenyl-tetrazolium bromide (MTT reagent, 0.5 mg mL^−1, Sigma-Aldrich, St. Louis, MO, USA) for 2–3 h. After medium removal, DMSO was added to dissolve the formazan product, and cell viability was determined by UV–Vis absorption of the resulting formazan at a wavelength of 560 nm in a microplate reader (BMG Labtech/SPECTROstar Nano, Ortenberg, Germany).
# HepG2 = experiment: Cell viability MTT assay, cancer cells; type: cell-based; settings: Homo sapiens; HepG2, 24 h, MTT; read-out: IC50
# Protocol: as §1, §2
# E. coli 780 = experiment: Antibacterial activity test (MIC, MBC, growth curve); type: cell-based, Escherichia coli; settings: Escherichia coli, E. coli 780, mean ± SD of three independent experiments; for MBC: read-out: MBC; for MIC: read-out: MIC
# Protocol: (§3) All bacteria strains were obtained from the Thailand Institute of Scientific and Technological Research (TISTR). The antibacterial activity of chalcones 3a–f was determined by the minimal inhibitory concentration (MIC) and the minimal bactericidal concentration (MBC) against the Gram-positive (S. aureus 1466, TISTR 1466) and Gram-negative (E.coli 780, TISTR 780) bacteria. The stocks of chalcones 3a–f (0.60 mg/mL) were serially diluted in Muller–Hinton (MH) broth to obtain concentrations in the range of 250–1000 µM. The solutions of chalcones 3a–f (100 µL) at different concentrations were added in the culture of the tested bacteria (100 µL) at a concentration of 1 × 10^6 colony-forming units/mL (CFU/mL) in MH broth at 37 °C with shaking at 80 rpm. The bacterial numbers were determined by measuring the optical density at 600 nm by a UV–Vis spectrometer. […] To determine the MBC values, the bacterial cultures (10 µL) containing the solutions of chalcones 3a–f at MIC and three higher concentrations were dropped on MH agar plates.
# S. aureus 1466 = experiment: as above; type: cell-based, Staphylococcus aureus; settings: Staphylococcus aureus, S. aureus 1466, mean ± SD of three independent experiments; for MBC: read-out: MBC; for MIC: read-out: MIC
# Protocol: as §3
smiles,measurement,setting,value
Cc1ccc(C(=O)/C=C/c2ccc(N(C)C)cc2)cc1 [3e],ε molar absorptivity,[1]; DMSO,32000 M⁻¹ cm⁻¹
same,λabs absorption maximum wavelength,[1]; DMSO,420 nm
same,∆λ stokes shifts (λem − λabs),[1]; DMSO,119 nm
same,λem emission maximum wavelength,[1]; DMSO,539 nm
same,Φf fluorescence quantum yields,[1]; DMSO,0.50 ± 0.02
same,ε molar absorptivity,[1]; MeOH,32000 M⁻¹ cm⁻¹
same,λabs absorption maximum wavelength,[1]; MeOH,417 nm
same,∆λ stokes shifts (λem − λabs),[1]; MeOH,130 nm
same,λem emission maximum wavelength,[1]; MeOH,547 nm
same,Φf fluorescence quantum yields,[1]; MeOH,0.012 ± 0.007
same,ε molar absorptivity,[1]; PBS (3%w/w tween 80),28000 M⁻¹ cm⁻¹
same,λabs absorption maximum wavelength,[1]; PBS (3%w/w tween 80),420 nm
same,∆λ stokes shifts (λem − λabs),[1]; PBS (3%w/w tween 80),101 nm
same,λem emission maximum wavelength,[1]; PBS (3%w/w tween 80),521 nm
same,Φf fluorescence quantum yields,[1]; PBS (3%w/w tween 80),0.18 ± 0.03
same,fluorescence emission,[2],Higher emission peaks
same,% photobleaching of absorbance,[3],46%
same,% photobleaching of fluorescence,[3],21%
same,IC50,HEK-293,96 µM
same,IC50,HepG2,54 µM
same,MBC,E. coli 780,1000 ± 0.02 µM
same,MIC,E. coli 780,375 ± 0.01 µM
same,MBC,S. aureus 1466,1000 ± 0.02 µM
same,MIC,S. aureus 1466,375 ± 0.03 µM
COc1ccc(C(=O)/C=C/c2ccc(N(C)C)cc2)cc1 [3a],ε molar absorptivity,[1]; DMSO,46000 M⁻¹ cm⁻¹
same,λabs absorption maximum wavelength,[1]; DMSO,417 nm
same,∆λ stokes shifts (λem − λabs),[1]; DMSO,115 nm
same,λem emission maximum wavelength,[1]; DMSO,532 nm
same,Φf fluorescence quantum yields,[1]; DMSO,0.69 ± 0.04
same,ε molar absorptivity,[1]; MeOH,30000 M⁻¹ cm⁻¹
same,λabs absorption maximum wavelength,[1]; MeOH,417 nm
same,∆λ stokes shifts (λem − λabs),[1]; MeOH,132 nm
same,λem emission maximum wavelength,[1]; MeOH,549 nm
same,Φf fluorescence quantum yields,[1]; MeOH,0.013 ± 0.006
same,ε molar absorptivity,[1]; PBS (3%w/w tween 80),33000 M⁻¹ cm⁻¹
same,λabs absorption maximum wavelength,[1]; PBS (3%w/w tween 80),416 nm
same,∆λ stokes shifts (λem − λabs),[1]; PBS (3%w/w tween 80),113 nm
same,λem emission maximum wavelength,[1]; PBS (3%w/w tween 80),529 nm
same,Φf fluorescence quantum yields,[1]; PBS (3%w/w tween 80),0.15 ± 0.02
same,fluorescence emission,[2],Higher emission peaks
same,% photobleaching of absorbance,[3],50%
same,% photobleaching of fluorescence,[3],25%
same,IC50,HEK-293,> 100 µM
same,MBC,E. coli 780,750 ± 0.02 µM
same,MIC,E. coli 780,375 ± 0.01 µM
same,MBC,S. aureus 1466,1000 ± 0.09 µM
same,MIC,S. aureus 1466,375 ± 0.03 µM
CN(C)c1ccc(/C=C/C(=O)c2ccc(N)cc2)cc1 [3f],ε molar absorptivity,[1]; DMSO,35000 M⁻¹ cm⁻¹
same,λabs absorption maximum wavelength,[1]; DMSO,412 nm
same,∆λ stokes shifts (λem − λabs),[1]; DMSO,100 nm
same,λem emission maximum wavelength,[1]; DMSO,512 nm
same,Φf fluorescence quantum yields,[1]; DMSO,0.21 ± 0.03
same,ε molar absorptivity,[1]; MeOH,31000 M⁻¹ cm⁻¹
same,λabs absorption maximum wavelength,[1]; MeOH,414 nm
same,∆λ stokes shifts (λem − λabs),[1]; MeOH,135 nm
same,λem emission maximum wavelength,[1]; MeOH,549 nm
same,Φf fluorescence quantum yields,[1]; MeOH,0.027 ± 0.011
same,ε molar absorptivity,[1]; PBS (3%w/w tween 80),34000 M⁻¹ cm⁻¹
same,λabs absorption maximum wavelength,[1]; PBS (3%w/w tween 80),412 nm
same,∆λ stokes shifts (λem − λabs),[1]; PBS (3%w/w tween 80),112 nm
same,λem emission maximum wavelength,[1]; PBS (3%w/w tween 80),524 nm
same,Φf fluorescence quantum yields,[1]; PBS (3%w/w tween 80),0.18 ± 0.02
same,fluorescence emission,[2],Higher emission peaks
same,% photobleaching of absorbance,[3],48%
same,% photobleaching of fluorescence,[3],47%
same,IC50,HEK-293,> 100 µM
same,IC50,HepG2,54 µM
same,MBC,E. coli 780,750 ± 0.01 µM
same,MIC,E. coli 780,375 ± 0.01 µM
same,MBC,S. aureus 1466,1000 ± 0.04 µM
same,MIC,S. aureus 1466,375 ± 0.01 µM
